Data: patent publication US12398111B2, “Triazine compounds and pharmaceutical use thereof” (Japan Tobacco Inc., priority 2014, dated 2025)

biological target: T1, human mPGES-1 (Homo sapiens, UniProt O14684); test: Evaluation of human mPGES-1 enzyme inhibitory activity (PGE2 measured by HTRF, microsome fraction of CHO-S cells expressing human mPGES-1); type: biochemical; settings: IC50 value; microsome fraction of CHO-S cells expressing human mPGES-1, PGE2 by HTRF
T1 construct: made in house; host or cells: FreeStyle CHO-S cells (Chinese hamster ovary), transient transfection with pcDNA3.1(+)/human mPGES-1; microsome fraction used
T1 sequence (O14684 1-152): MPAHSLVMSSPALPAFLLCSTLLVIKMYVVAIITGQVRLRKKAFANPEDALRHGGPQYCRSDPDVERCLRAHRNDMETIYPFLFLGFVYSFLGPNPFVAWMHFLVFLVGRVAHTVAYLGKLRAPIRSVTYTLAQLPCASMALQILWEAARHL
Method in brief: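 Enzyme source: microsomes from CHO-S cells transfected with human mPGES-1 and cultured 48 hr, diluted to 5 μg/mL protein in reduced GSH (12.5 mmol/L KPB solution). Test articles were in 0.1 mol/L potassium phosphate pH 7.4, final DMSO 2% (v/v). PGE2 formed was quantified by HTRF.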

Row | IC50 [nM] | Compound
1 | 19 | Cc1cccc(C)c1-c1nc(O)nc(-c2ccc(Cl)c(OCc3ccccc3)c2)n1 [Example 2-48]
2 | 14 | CCc1ccccc1COc1cccc(Cl)c1-c1nc(O)nc(-c2ccc(C(F)(F)F)cc2)n1 [Example 2-49]
3 | 100 | CCOc1cc(-c2nc(O)nc(-c3c(C)cccc3C)n2)ccc1Cl [Example 2-52]
4 | 11 | Cc1ccccc1COc1cccc(Cl)c1-c1nc(O)nc(-c2ccc(C(F)(F)F)cc2)n1 [Example 2-53]
5 | 10 | Cc1cccc(COc2cccc(Cl)c2-c2nc(O)nc(-c3ccc(C(F)(F)F)cc3)n2)c1 [Example 2-55]
6 | 25 | Cc1cccc(C)c1-c1nc(O)nc(-c2ccc(OCC3CCCCCC3)cc2)n1 [Example 2-57]
7 | 121 | Oc1nc(-c2ccc(C(F)(F)F)cc2)nc(-c2c(Cl)cccc2OCc2cccnc2)n1 [Example 2-60]
8 | 259 | C[C@@H](Oc1cccc(Cl)c1-c1nc(O)nc(-c2ccc(OCC(C)(C)C)cc2)n1)c1ccccn1 [Example 2-63]
9 | 27 | CC(C)COc1ccc(-c2nc(O)nc(-c3c(Cl)cccc3O[C@@H](C)c3ccccn3)n2)cc1 [Example 2-67]
10 | 672 | CC(C)(C)COc1ccc(-c2nc(O)nc(-c3c(Cl)cccc3OCc3ncccn3)n2)cc1 [Example 2-68]
11 | 172 | Cc1cccc(C)c1-c1nc(O)nc(-c2ccc(OCCC(C)C)cc2)n1 [Example 2-71]
12 | 402 | CCC(CC)Oc1ccc(-c2nc(O)nc(-c3c(C)cccc3C)n2)cc1 [Example 2-73]
13 | 5.8 | Oc1nc(-c2ccc(C#CC3CCCCC3)cc2)nc(-c2c(Cl)cccc2OCc2ccccn2)n1 [Example 2-76]
14 | 1.7 | Oc1nc(-c2ccc(C#CC3CC3)cc2)nc(-c2c(Cl)cccc2OCc2ccccn2)n1 [Example 2-82]
15 | 17 | CC1(C)CCC(Oc2ccc(-c3nc(O)nc(-c4c(Cl)cccc4OCc4ccccn4)n3)cc2)CC1 [Example 2-84]
16 | 2100 | CN(C)C(=O)COc1cccc(Cl)c1-c1nc(O)nc(-c2ccc(OCC3CC3)cc2)n1 [Example 2-90]
17 | 38 | Oc1nc(-c2ccc(OCC3CC3)nc2)nc(-c2c(Cl)cccc2OCc2ccccc2)n1 [Example 2-93]
18 | 5.6 | Cc1ccccc1C#Cc1ccc(-c2nc(O)nc(-c3c(OCc4ccccn4)cccc3C(F)(F)F)n2)cc1 [Example 2-100]
19 | 18 | Oc1nc(-c2ccc(C#Cc3cccc(C(F)(F)F)c3)cc2)nc(-c2c(OCc3ccccn3)cccc2C(F)(F)F)n1 [Example 2-104]
20 | 5 | Oc1nc(-c2ccc(C#Cc3ccccc3)c(F)c2)nc(-c2c(OCc3ccccn3)cccc2C(F)(F)F)n1 [Example 2-106]
21 | 6.4 | Cc1cccc(COc2cccc(C(F)(F)F)c2-c2nc(O)nc(-c3ccc(C#Cc4ccccc4Cl)cc3)n2)n1 [Example 2-108]
22 | 3 | Oc1nc(-c2ccc(C#Cc3ccccc3)cc2)nc(-c2c(OCc3ccc(F)cn3)cccc2C(F)(F)F)n1 [Example 2-115]

Second part, the molecule before the results:

Row | Compound | IC50 [nM]
23 | Cc1cccc(C)c1-c1nc(O)nc(-c2ccc(O[C@H](C)c3ccccc3)cc2)n1 [Example 2-44] | 563
24 | Oc1nc(-c2ccc(C(F)(F)F)cc2)nc(-c2c(Cl)cccc2OCc2ccccn2)n1 [Example 2-45] | 12
25 | Cc1cccc(C)c1-c1nc(O)nc(-c2ccc(OC3CCCCC3)cc2)n1 [Example 2-46] | 494
26 | Cc1cccc(C)c1-c1nc(O)nc(-c2ccc(OC3CCC(C)(C)CC3)cc2)n1 [Example 2-47] | 295
27 | Cc1cccc(C)c1-c1nc(O)nc(-c2ccc(OCC3CCCC3)cc2)n1 [Example 2-50] | 61
28 | Cc1cccc(C)c1-c1nc(O)nc(-c2ccc(OCC3CCC3)cc2)n1 [Example 2-51] | 90
29 | CCc1cc(-c2nc(O)nc(-c3c(C)cccc3C)n2)ccc1Cl [Example 2-54] | 170
30 | Cc1ccc(COc2cccc(Cl)c2-c2nc(O)nc(-c3ccc(C(F)(F)F)cc3)n2)cc1 [Example 2-56] | 18
31 | Cc1cccc(C)c1-c1nc(O)nc(-c2ccc(OCC(C)(C)C)cc2)n1 [Example 2-58] | 145
32 | Cc1cccc(C)c1-c1nc(O)nc(-c2ccc(OCc3ccccc3)nc2)n1 [Example 2-59] | 95
33 | Oc1nc(-c2ccc(C(F)(F)F)cc2)nc(-c2c(Cl)cccc2OCc2ccncc2)n1 [Example 2-61] | 92
34 | CC(C)(C)COc1ccc(-c2nc(O)nc(-c3c(Cl)cccc3OCc3ccccn3)n2)cc1 [Example 2-62] | 9.3
35 | C[C@H](Oc1cccc(Cl)c1-c1nc(O)nc(-c2ccc(OCC(C)(C)C)cc2)n1)c1ccccn1 [Example 2-64] | 12
36 | C[C@H](Oc1cccc(Cl)c1-c1nc(O)nc(-c2ccc(OCC(C)(C)C)cc2)n1)c1ccccc1 [Example 2-65] | 151
37 | CC(C)COc1ccc(-c2nc(O)nc(-c3c(Cl)cccc3OCc3ccccn3)n2)cc1 [Example 2-66] | 16
38 | CCCCCOc1ccc(-c2nc(O)nc(-c3c(C)cccc3C)n2)cc1 [Example 2-69] | 84
39 | CCCCOc1ccc(-c2nc(O)nc(-c3c(C)cccc3C)n2)cc1 [Example 2-70] | 158
40 | Cc1cccnc1COc1cccc(Cl)c1-c1nc(O)nc(-c2ccc(OCC(C)C)cc2)n1 [Example 2-72] | 283
41 | Cc1cccc(C)c1-c1nc(O)nc(-c2ccc(OCC3CC3)cc2)n1 [Example 2-74] | 424
42 | Oc1nc(-c2ccc(OCC3CCC3)cc2)nc(-c2c(Cl)cccc2OCc2ccccn2)n1 [Example 2-75] | 3.7
43 | Oc1nc(-c2ccc(OCC3CCCCC3)cc2)nc(-c2c(Cl)cccc2OCc2ccccn2)n1 [Example 2-77] | 3.7
44 | Oc1nc(-c2ccc(C#Cc3ccccc3)cc2)nc(-c2c(Cl)cccc2OCc2ccccn2)n1 [Example 2-80] | 1.6
45 | Oc1nc(-c2ccc(C#CC3CCCC3)cc2)nc(-c2c(Cl)cccc2OCc2ccccn2)n1 [Example 2-81] | 2.7
46 | Oc1nc(-c2ccc(C#CC3CCCCC3)cc2)nc(-c2c(Cl)cccc2OCc2ccc(C(F)(F)F)cn2)n1 [Example 2-83] | 51
47 | C[C@H](Oc1cccc(Cl)c1-c1nc(O)nc(-c2ccc(C#Cc3ccccc3)cc2)n1)c1ccccn1 [Example 2-86] | 2.2

Row | Compound | IC50 [nM]
48 | Cc1cccc(COc2cccc(Cl)c2-c2nc(O)nc(-c3ccc(C#Cc4ccccc4)cc3)n2)n1 [Example 2-87] | 1.8
49 | N#Cc1cccc(OCc2ccccn2)c1-c1nc(O)nc(-c2ccc(C#Cc3ccccc3)cc2)n1 [Example 2-88] | 2
50 | Oc1nc(-c2ccc(OCC3CC3)cc2)nc(-c2c(Cl)cccc2OCc2ccccn2)n1 [Example 2-89] | 18
51 | Oc1nc(-c2ccc(C#CC3CCCC3)cc2)nc(-c2c(Cl)cccc2OCc2ccccn2)n1 [Example 2-91] | 1.6
52 | Oc1nc(-c2ccc(C#CC3CCCCC3)cc2)nc(-c2c(Cl)cccc2OCc2ccccn2)n1 [Example 2-92] | 4.4
53 | CC(C)(C)C#Cc1ccc(-c2nc(O)nc(-c3c(Cl)cccc3OCc3ccccn3)n2)cc1 [Example 2-94] | 4.1
54 | Oc1nc(-c2ccc(C#Cc3ccccc3)cc2)nc(-c2c(OCc3ccccn3)cccc2C(F)(F)F)n1 [Example 2-95] | 5
55 | Oc1nc(-c2ccc(C#Cc3ccccn3)cc2)nc(-c2c(Cl)cccc2OCc2ccccc2)n1 [Example 2-96] | 21
56 | Oc1nc(-c2ccc(C#Cc3ccccn3)cc2)nc(-c2c(Cl)cccc2OCc2ccccn2)n1 [Example 2-97] | 8.9
57 | Cc1cccc(COc2cccc(C(F)(F)F)c2-c2nc(O)nc(-c3ccc(C#Cc4ccccc4)nc3)n2)n1 [Example 2-99] | 1.7
58 | Cc1cccc(C#Cc2ccc(-c3nc(O)nc(-c4c(OCc5ccccn5)cccc4C(F)(F)F)n3)cc2)c1 [Example 2-101] | 6.5
59 | Cc1ccc(C#Cc2ccc(-c3nc(O)nc(-c4c(OCc5ccccn5)cccc4C(F)(F)F)n3)cc2)cc1 [Example 2-102] | 5.9
60 | Oc1nc(-c2ccc(C#Cc3ccccc3C(F)(F)F)cc2)nc(-c2c(OCc3ccccn3)cccc2C(F)(F)F)n1 [Example 2-103] | 10
61 | Oc1nc(-c2ccc(C#Cc3ccc(C(F)(F)F)cc3)cc2)nc(-c2c(OCc3ccccn3)cccc2C(F)(F)F)n1 [Example 2-105] | 18
62 | Cc1cccc(COc2cccc(C(F)(F)F)c2-c2nc(O)nc(-c3ccc(C#Cc4ccccc4F)cc3)n2)n1 [Example 2-107] | 3.8
63 | COc1ccccc1C#Cc1ccc(-c2nc(O)nc(-c3c(OCc4cccc(C)n4)cccc3C(F)(F)F)n2)cc1 [Example 2-109] | 2.8
64 | Cc1cc(C)nc(COc2cccc(C(F)(F)F)c2-c2nc(O)nc(-c3ccc(C#Cc4ccccc4)cc3)n2)c1 [Example 2-110] | 7.4
65 | Oc1nc(-c2ccc(C#Cc3ccccc3)cc2)nc(-c2c(OCc3ncccc3F)cccc2C(F)(F)F)n1 [Example 2-111] | 4.4
66 | Oc1nc(-c2ccc(C#Cc3ccccc3)cc2)nc(-c2c(OCc3ccc(Cl)cn3)cccc2C(F)(F)F)n1 [Example 2-112] | 5.9
67 | Cc1ccnc(COc2cccc(C(F)(F)F)c2-c2nc(O)nc(-c3ccc(C#Cc4ccccc4)cc3)n2)c1 [Example 2-113] | 5.1
68 | Cc1ccc(COc2cccc(C(F)(F)F)c2-c2nc(O)nc(-c3ccc(C#Cc4ccccc4)cc3)n2)nc1 [Example 2-114] | 4.9
69 | Cc1cccc(COc2cccc(C(F)(F)F)c2-c2nc(O)nc(-c3ccc(C#Cc4cccc(F)c4)cc3)n2)n1 [Example 2-116] | 5.5
70 | Cc1cccc(COc2cccc(C(F)(F)F)c2-c2nc(O)nc(-c3ccc(C#Cc4ccc(F)cc4)cc3)n2)n1 [Example 2-117] | 4.7
71 | COc1cccc(COc2cccc(C(F)(F)F)c2-c2nc(O)nc(-c3ccc(C#Cc4ccccc4)cc3)n2)n1 [Example 2-118] | 7.1
